Measured values published in patent US8530513B1, “Pharmaceutical uses of diterpene excavatolide B from a coral or an analogue thereof” (National Sun Yat-Sen University, priority 2012, dated 2013).

Key:
[1] = system: abdominal skins of female C57BL/6 mice; test: TPA-induced edema, H&E-stained skin sections; type: in vivo, mouse; settings: topical 1 mg/site for 6 h after TPA
Description: (§1) Mice were treated or not treated topically on their shaven abdomens with acetone (vehicle only) or TPA (10 nmol in 200 μl acetone/site) for 6 h or treated first with TPA for 10 min, then with the indicated concentrations of BrD1 for 6 h. Mice were killed by cervical dislocation. Abdominal skin tissues were collected, fixed with formalin buffer and embedded in paraffin. Tissue sections ([…]) were cut and laid onto silanized glass slides and deparaffinized three times with xylene for 5 min each prior to rehydration using a graded alcohol bath. For hematoxyline and eosin staining, the sections were stained with hematoxyline and eosin staining. For immunohistochemical staining, the deparaffinized sections were boiled in 10 mM citrate buffer (pH 6.0) for 10 min for antigen retrieval and rinsed with PBS containing 0.05% Tween-20 buffer for 5 min. The sections were treated with 3% hydrogen peroxide in methanol for 15 min to decrease non-specific binding. […] Subsequently, peroxidase-binding sites were determined by staining with 3,3′-diaminobenzidine tetrahydrochloride (Dako). […]
Since increased vascular permeability is one of factors contributing to the formation of edema, we next evaluated whether BrD1 inhibited formation of edema in TPA-induced inflammation by examining H&E-stained longitudinal sections of skin samples.

COX-2 = test: TPA-induced COX-2 expression in mouse skin, immunohistochemical staining; type: in vivo; settings: topical for 6 h after TPA, anti-COX-2 immunostaining
iNOS = test: TPA-induced iNOS expression in mouse skin, immunohistochemical staining; type: in vivo; settings: topical for 6 h after TPA, anti-iNOS immunostaining
Description: as §1, with “binding. They were subsequently washed with blocking solution (PBS containing 1% BSA) for 30 min and then PBST twice for 5 min. All slides were incubated first with 2% goat serum in blocking solution for 30 min, then with a 1:200 dilution of polyclonal iNOS antibody (eBioscience, San Diego, Calif.) at room temperature for 1 h.” for “binding.”

Akt = test: TPA-stimulated Akt phosphorylation in mouse skin, western blot; type: in vivo; settings: topical for 2 h after TPA
Description: Shaven abdominal skins of female C57BL/6JNarl mice were not treated or topically treated with vehicle (acetone, 200 μl/site) or TPA (10 nmol in 200 μl acetone/site) at indicated time points or treated first with TPA for 10 min, then with the indicated concentrations of BrD1 at the indicated time points. Abdominal skin samples were collected, homogenated and lysed to prepare total proteins. Protein samples were subsequently resolved by SDS-PAGE using a gradient gel. The resolved proteins were transferred to a PVDF Immobilon-P membrane (Millipore, Bedford, Calif.), and the membrane was blocked with 5% non-fat dry milk in PBST buffer (phosphate-buffered saline (PBS) containing 0.1% Tween 20) for 60 minutes at room temperature. The membranes were incubated overnight at 4° C. with commercially available antibodies (1:1000 dilutions). Loading of equal amounts of protein was assessed using mouse β-actin. The blots were rinsed three times with PBST buffer for 5 minutes. Washed blots were incubated with HRP-conjugated secondary antibody (1:100,000 dilution), then washed again three times with PBST buffer. […] Quantification of bands was performed using Image J software.
We therefore evaluated whether BrD1 could interfere with TPA-induced activation of Akt and Erk in inflamed skin. […] We thus determined the phosphorylation level of Akt, Erk, NF-κB and IκBα in skins subjected to different treatments. […]

## CCCC(=O)O[C@H]1C/C(C)=C\[C@@H]2OC(=O)[C@]3(C)O[C@]23[C@@H](OC(C)=O)[C@H]2[C@@H](C)[C@@H](O)C[C@H](OC(C)=O)[C@]2(C)[C@H]1OC(C)=O [BrD1, excavatolide B]
[1]
  skin thickness (TPA-induced edema): substantially decreased the skin thickness
[1]; listed as excavatolide B
  skin thickness (TPA-induced edema): substantially decreases the skin thickness
COX-2
  TPA-induced COX-2 expression: reduced the TPA-induced COX-2 expression in the epidermis
COX-2; listed as excavatolide B
  TPA-induced COX-2 expression: reduces the TPA-induced COX-2 expression in the epidermis
iNOS
  TPA-induced iNOS expression: markedly reduced the TPA-induced iNOS expression in the epidermal and dermal layers
iNOS; listed as excavatolide B
  TPA-induced iNOS expression: markedly reduces the TPA-induced iNOS expression in the epidermal and dermal layers
Akt
  TPA-stimulated phosphorylation of Akt: significantly inhibited the TPA-stimulated phosphorylation of Akt
Akt; listed as excavatolide B
  TPA-stimulated phosphorylation of Akt: significantly inhibits the TPA-stimulated phosphorylation of Akt
